Measurements reported in ChEMBL document CHEMBL4152377, “Design and Activity of Specific Hypoxia-Inducible Factor-2α (HIF-2α) Inhibitors for the Treatment of Clear Cell Renal Cell Carcinoma: Discovery of Clinical Candidate ( S)-3-((2,2-Difluoro-1-hydroxy-7-(methylsulfonyl)-2,3-dihydro-1 H-inden-4-yl)oxy)-5-fluorobenzonitrile (PT2385)” (J Med Chem, 2018).
In brackets after ≈: the same amount, converted by molar mass. Activity calls are given as the source filed them. No cut-off for these calls is given here.

Key:
[1] = Protein binding in dog plasma at 10 uM after 4 hrs by LC-MS/MS analysis; format: ADME, cell-free, Canis lupus familiaris; conditions: read-out: PPB (converted)
[2] = Intrinsic clearance in monkey liver microsomes at 1 uM measured up to 30 mins by LC-MS/MS analysis; format: ADME, Macaca mulatta, microsome; conditions: rhesus monkey, read-out: CLH
[3] = Oral bioavailability in CD1 mouse at 10 mg/kg by UPLC analysis; format: ADME, organism-based; conditions: in vivo
[4] = Protein binding in mouse plasma at 10 uM after 4 hrs by LC-MS/MS analysis; format: ADME, cell-free; conditions: read-out: PPB (converted)
[5] = Apparent permeability across apical to basolateral side in MDCK-MDR1 cells at 1 uM after 1 hr by LC/MS/MS analysis; format: ADME, cell-based, Canis lupus familiaris; conditions: dog
[6] = Intrinsic clearance in mouse liver microsomes at 1 uM measured up to 30 mins by LC-MS/MS analysis; format: ADME, microsome; conditions: read-out: CLH
Mus musculus [7] = assay: Toxicity in SCID/Biege mouse xenografted with human 786-O cells assessed as morbidity at 10 mg/kg, po bid for 21 days; format: organism-based; conditions: in vivo, 504 h
[8] = Clearance in CD1 mouse at 3 mg/kg, iv by UPLC analysis; format: ADME, organism-based; conditions: in vivo
786-0 [9] = assay: Antitumor activity against human 786-O cells xenografted in SCID/Biege mouse assessed as tumor regression at 10 mg/kg, po bid for 21 days; format: functional, organism-based
[10] = Clearance in Sprague-Dawley rat at 3 mg/kg, iv by UPLC analysis; format: ADME, organism-based; conditions: in vivo
Cytochrome P450 2C9 = Cytochrome P450 2C9 (Homo sapiens, UniProt P11712); assay: Inhibition of CYP2C9 in human liver microsomes using diclofenac as substrate after 10 mins in presence of NADPH by LC-MS/MS analysis; format: ADME
[11] = AUCt in CD1 mouse at 10 mg/kg, po by UPLC analysis; format: ADME, organism-based; conditions: in vivo
Canis familiaris [12] = assay: AUCt in Beagle dog at 10 mg/kg, po via gavage by UPLC analysis; format: ADME, organism-based, Canis lupus familiaris; conditions: in vivo
[13] = Volume of distribution at steady state in Beagle dog at 3 mg/kg, iv by UPLC analysis; format: ADME, organism-based, Canis lupus familiaris; conditions: in vivo, read-out: Vdss
Cytochrome P450 3A4 = Cytochrome P450 3A4 (Homo sapiens, UniProt P08684); assay: Inhibition of CYP3A4 in human liver microsomes using midazolam as substrate after 10 mins in presence of NADPH by LC-MS/MS analysis; format: ADME
Cytochrome P450 1A2 = biological target: T1, Cytochrome P450 1A2 (Homo sapiens, UniProt P05177); assay: Inhibition of CYP1A2 in human liver microsomes using phenacetin after 10 mins in presence of NADPH by LC-MS/MS analysis; format: ADME
T1 sequence (P05177 whole entry): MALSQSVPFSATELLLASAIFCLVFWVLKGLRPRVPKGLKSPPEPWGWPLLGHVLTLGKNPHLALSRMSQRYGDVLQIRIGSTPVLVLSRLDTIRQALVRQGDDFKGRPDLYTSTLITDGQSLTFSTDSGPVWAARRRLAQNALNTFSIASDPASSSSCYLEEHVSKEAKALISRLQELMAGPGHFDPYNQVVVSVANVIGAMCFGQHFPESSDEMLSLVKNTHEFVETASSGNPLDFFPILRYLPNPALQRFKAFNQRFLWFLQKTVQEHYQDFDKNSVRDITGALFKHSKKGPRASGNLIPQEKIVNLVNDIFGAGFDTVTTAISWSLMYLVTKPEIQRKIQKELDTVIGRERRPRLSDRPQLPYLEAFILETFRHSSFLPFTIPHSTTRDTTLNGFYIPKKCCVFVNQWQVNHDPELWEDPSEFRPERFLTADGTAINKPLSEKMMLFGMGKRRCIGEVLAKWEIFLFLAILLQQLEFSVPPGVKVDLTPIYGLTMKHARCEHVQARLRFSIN

[14] = Oral bioavailability in Sprague-Dawley rat at 10 mg/kg administered via gavage by UPLC analysis; format: ADME, organism-based; conditions: in vivo
[15] = Volume of distribution at steady state in Sprague-Dawley rat at 3 mg/kg, iv by UPLC analysis; format: ADME, organism-based; conditions: in vivo, read-out: Vdss
[16] = Intrinsic clearance in rat liver microsomes at 1 uM measured up to 30 mins by LC-MS/MS analysis; format: ADME, microsome; conditions: read-out: CLH
Canis familiaris [17] = assay: Oral bioavailability in Beagle dog at 10 mg/kg administered via gavage by UPLC analysis; format: ADME, organism-based, Canis lupus familiaris; conditions: in vivo
[18] = Thermodynamic solubility of the compound in phosphate buffer at pH 7.4 after 24 hrs by HPLC-UV analysis; format: physicochemical; conditions: read-out: Therm_solubility
Cytochrome P450 2D6 = Cytochrome P450 2D6 (Homo sapiens, UniProt P10635); assay: Inhibition of CYP2D6 in human liver microsomes using dextromethorphan as substrate after 10 mins in presence of NADPH by LC-MS/MS analysis; format: ADME
Mus musculus [19] = assay: In vivo inhibition of HIF-2alpha in SCID/Biege mouse xenografted with human 786-O cells assessed as reduction in CCND1 mRNA levels at 10 mg/kg, po bid for 3 days and measured after 12 hrs post last dose by qRT-PCR analysis; format: functional, organism-based
[20] = Plasma concentration in mouse after 12 hrs; format: ADME, cell-free
[21] = Protein binding in monkey plasma at 10 uM after 4 hrs by LC-MS/MS analysis; format: ADME, cell-free, Macaca mulatta; conditions: rhesus monkey, read-out: PPB (converted)
[22] = Half life in Sprague-Dawley rat at 10 mg/kg, po via gavage by UPLC analysis; format: ADME, organism-based; conditions: in vivo
[23] = Half life in CD1 mouse at 10 mg/kg, po by UPLC analysis; format: ADME, organism-based; conditions: in vivo
[24] = Intrinsic clearance in dog liver microsomes at 1 uM measured up to 30 mins by LC-MS/MS analysis; format: ADME, Canis lupus familiaris, microsome; conditions: read-out: CLH
[25] = AUCt in Sprague-Dawley rat at 10 mg/kg, po via gavage by UPLC analysis; format: ADME, organism-based; conditions: in vivo
hERG (KCNH2) = hERG (KCNH2) (Homo sapiens, UniProt Q12809); assay: Inhibition of human ERG expressed in mammalian cells at 10 uM after 3 mins by QPatch clamp assay; format: cell-based; conditions: mammalian cells that express human ERG
[26] = Volume of distribution at steady state in CD1 mouse at 3 mg/kg, iv by UPLC analysis; format: ADME, organism-based; conditions: in vivo, read-out: Vdss
786-0 [27] = assay: In vivo inhibition of HIF-2alpha in SCID/Biege mouse xenografted with human 786-O cells assessed as reduction in tumor derived VEGFA protein levels at 10 mg/kg, po bid for 3 days and measured after 12 hrs post last dose by ELISA; format: functional, organism-based
[28] = Protein binding in human plasma at 10 uM after 4 hrs by LC-MS/MS analysis; format: ADME, cell-free; conditions: read-out: PPB (converted)
Mus musculus [29] = assay: Toxicity in SCID/Biege mouse xenografted with human 786-O cells assessed as mortality at 10 mg/kg, po bid for 21 days; format: organism-based; conditions: in vivo, 504 h

Cytochrome P450 3A4, sequence (P08684 whole entry): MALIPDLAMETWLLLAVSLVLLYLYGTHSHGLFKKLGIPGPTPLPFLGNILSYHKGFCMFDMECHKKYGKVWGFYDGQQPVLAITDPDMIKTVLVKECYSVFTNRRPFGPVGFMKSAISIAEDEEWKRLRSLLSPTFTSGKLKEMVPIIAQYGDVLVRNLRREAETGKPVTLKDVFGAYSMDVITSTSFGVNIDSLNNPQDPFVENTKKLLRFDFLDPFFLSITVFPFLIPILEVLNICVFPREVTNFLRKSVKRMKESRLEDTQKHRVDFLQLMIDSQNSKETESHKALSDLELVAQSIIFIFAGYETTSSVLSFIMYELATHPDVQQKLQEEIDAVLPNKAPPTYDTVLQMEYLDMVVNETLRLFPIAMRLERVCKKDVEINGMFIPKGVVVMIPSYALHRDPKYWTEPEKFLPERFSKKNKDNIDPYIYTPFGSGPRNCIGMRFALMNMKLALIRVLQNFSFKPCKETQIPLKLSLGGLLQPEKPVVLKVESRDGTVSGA
Cytochrome P450 2D6, sequence (P10635 whole entry): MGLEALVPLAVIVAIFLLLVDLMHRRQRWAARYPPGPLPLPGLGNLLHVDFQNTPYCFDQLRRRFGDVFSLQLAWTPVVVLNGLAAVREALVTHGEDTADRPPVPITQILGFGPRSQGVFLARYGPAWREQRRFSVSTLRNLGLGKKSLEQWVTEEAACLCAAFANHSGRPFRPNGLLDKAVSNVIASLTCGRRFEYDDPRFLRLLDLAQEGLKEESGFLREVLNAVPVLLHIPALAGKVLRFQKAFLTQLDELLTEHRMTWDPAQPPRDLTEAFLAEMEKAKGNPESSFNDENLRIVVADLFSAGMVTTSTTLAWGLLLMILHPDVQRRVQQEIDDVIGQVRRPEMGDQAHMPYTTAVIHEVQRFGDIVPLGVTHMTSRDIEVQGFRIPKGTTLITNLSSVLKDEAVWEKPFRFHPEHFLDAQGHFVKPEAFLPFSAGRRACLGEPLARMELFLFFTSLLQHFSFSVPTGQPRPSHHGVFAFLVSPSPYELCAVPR
Cytochrome P450 2C9, sequence (P11712 whole entry): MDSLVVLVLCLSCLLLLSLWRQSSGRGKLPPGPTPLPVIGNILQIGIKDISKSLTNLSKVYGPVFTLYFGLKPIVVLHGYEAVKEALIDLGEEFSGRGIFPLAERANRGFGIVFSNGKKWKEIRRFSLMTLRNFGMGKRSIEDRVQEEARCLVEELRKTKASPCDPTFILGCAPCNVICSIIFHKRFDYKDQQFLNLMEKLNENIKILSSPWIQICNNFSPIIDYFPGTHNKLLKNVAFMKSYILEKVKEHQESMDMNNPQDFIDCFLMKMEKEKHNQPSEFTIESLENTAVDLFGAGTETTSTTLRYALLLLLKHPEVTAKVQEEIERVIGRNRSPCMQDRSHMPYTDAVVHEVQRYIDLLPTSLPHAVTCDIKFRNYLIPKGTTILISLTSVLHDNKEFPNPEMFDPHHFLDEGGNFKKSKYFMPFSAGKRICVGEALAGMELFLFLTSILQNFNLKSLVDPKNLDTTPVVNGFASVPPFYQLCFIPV
hERG (KCNH2), sequence (Q12809 whole entry): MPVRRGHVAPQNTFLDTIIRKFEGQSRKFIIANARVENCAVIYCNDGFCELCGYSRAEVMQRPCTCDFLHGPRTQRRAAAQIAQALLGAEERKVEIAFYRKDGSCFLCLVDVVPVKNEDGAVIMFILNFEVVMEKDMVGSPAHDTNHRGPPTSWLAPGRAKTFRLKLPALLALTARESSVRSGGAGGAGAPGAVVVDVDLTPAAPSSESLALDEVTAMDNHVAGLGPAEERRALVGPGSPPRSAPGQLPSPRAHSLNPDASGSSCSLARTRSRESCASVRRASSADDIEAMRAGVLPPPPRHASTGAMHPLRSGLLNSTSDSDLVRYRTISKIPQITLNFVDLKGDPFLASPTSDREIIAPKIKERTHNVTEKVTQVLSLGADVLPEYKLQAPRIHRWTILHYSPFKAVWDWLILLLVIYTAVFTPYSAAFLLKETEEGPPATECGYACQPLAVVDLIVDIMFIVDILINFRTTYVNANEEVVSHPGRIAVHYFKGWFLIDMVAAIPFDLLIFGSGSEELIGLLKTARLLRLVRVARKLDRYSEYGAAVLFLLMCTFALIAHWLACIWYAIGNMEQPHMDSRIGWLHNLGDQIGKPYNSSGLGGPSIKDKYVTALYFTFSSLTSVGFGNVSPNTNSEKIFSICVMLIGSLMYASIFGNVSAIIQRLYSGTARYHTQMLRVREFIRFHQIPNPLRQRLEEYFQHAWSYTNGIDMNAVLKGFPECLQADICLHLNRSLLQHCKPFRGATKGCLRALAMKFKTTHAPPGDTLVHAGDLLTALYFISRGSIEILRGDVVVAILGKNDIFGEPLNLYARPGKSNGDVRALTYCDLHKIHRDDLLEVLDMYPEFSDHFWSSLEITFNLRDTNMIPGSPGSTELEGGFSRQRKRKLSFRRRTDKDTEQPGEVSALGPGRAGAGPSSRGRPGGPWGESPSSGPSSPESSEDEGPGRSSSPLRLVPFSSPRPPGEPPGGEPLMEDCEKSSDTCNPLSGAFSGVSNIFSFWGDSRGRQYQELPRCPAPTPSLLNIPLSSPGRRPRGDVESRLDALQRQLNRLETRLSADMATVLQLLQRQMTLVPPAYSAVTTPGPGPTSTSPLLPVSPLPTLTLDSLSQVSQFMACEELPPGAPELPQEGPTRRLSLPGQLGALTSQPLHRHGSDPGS

Compound	fraction unbound at 4 h, 10 µM [1]	CLint scaled at 1 µM [2] [mL/min/kg]	bioavailability [3] [%]	fraction unbound at 4 h, 10 µM [4]	Papp A→B at 1 h, 1 µM [5] [×10⁻⁶ cm/s]	CLint scaled at 1 µM [6] [mL/min/kg]	Activity (Mus musculus [7])	clearance [8] [mL/min/kg]	Activity (786-0 [9])	clearance [10] [mL/min/kg]	IC50 (Cytochrome P450 2C9) [µM]	AUC(0-t) [11] [µM·h]	AUCt (Canis familiaris [12]) [µM·h]	Vd [13] [L/kg]	IC50 (Cytochrome P450 3A4) [µM]	IC50 (Cytochrome P450 1A2) [µM]	bioavailability [14] [%]	Vd [15] [L/kg]	CLint scaled at 1 µM [16] [mL/min/kg]	F (Canis familiaris [17]) [%]	further results
CS(=O)(=O)c1ccc(Oc2cc(F)cc(C#N)c2)c2c1[C@H](O)C(F)(F)C2	0.25	5.4	110	0.26	2.98	19.9	Non-Toxic	29.2	Active	34.6	23	16.4	6.2	8.6	> 50	> 50	40	6.24	22.6	87	solubility thermodynamic at 24 h [18]: 59 µM (≈ 22.6 µg/mL); IC50 (Cytochrome P450 2D6): > 50 µM; inhibition (Mus musculus [19]): Active; concentration at 12 h [20]: 460 nM; fraction unbound at 4 h, 10 µM [21]: 0.26; half-life [22]: 3.3 h; half-life [23]: 3.3 h; CLint scaled at 1 µM [24]: < 5 mL/min/kg; AUC(0-t) [25]: 5.12 µM·h; inhibition at 0.05 h, 10 µM (hERG (KCNH2)): 8.2%; Vd [26]: 7 L/kg; inhibition (786-0 [27]): Active; fraction unbound at 4 h, 10 µM [28]: 0.21; Activity (Mus musculus [29]): Non-Toxic
N#Cc1cc(F)cc(Oc2ccc3c(c2C(F)F)[C@@H](O)C(F)(F)S3(=O)=O)c1	0.18	< 4	110	0.11	2.6	5.9	Non-Toxic	70.6	Active	27.2	15.7	6.1	12.6	3.1	13.3	> 50	36	3.5	9.1	72	solubility thermodynamic at 24 h [18]: 126 µM (≈ 51.1 µg/mL); IC50 (Cytochrome P450 2D6): > 50 µM; inhibition (Mus musculus [19]): Active; concentration at 12 h [20]: 220 nM; fraction unbound at 4 h, 10 µM [21]: 0.38; half-life [22]: 3.7 h; half-life [23]: 6.5 h; CLint scaled at 1 µM [24]: < 5 mL/min/kg; AUC(0-t) [25]: 5.49 µM·h; inhibition at 0.05 h, 10 µM (hERG (KCNH2)): 17%; Vd [26]: 9.5 L/kg; inhibition (786-0 [27]): Active; fraction unbound at 4 h, 10 µM [28]: 0.37; Activity (Mus musculus [29]): Non-Toxic
